The results in this text go back to patent US20250289793A1, “MACROCYCLIC INHIBITORS OF ATP CITRATE LYASE” (Esperion Therapeutics, Inc., priority 2022, published 2025).

Assay [1] has as its target T1, ACLY (Homo sapiens (Human), UniProt P53396). The assay is described as follows: Human ACLY (hACLY) RF/MS activity assay. The format is biochemical. The conditions noted are these: 1 nM hACLY; 30 min pre-incubation; 15 μM Coenzyme A, 50 μM ATP, 50 μM citrate; CoA to Acetyl-CoA by RF/MS; read-out: RFMS IC50 GMean. The method in brief:
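RapidFire MS read CoA-to-acetyl-CoA conversion as a substrate/product ratio after 30 min at RT (20° C) with final 15 μM CoA, 50 μM ATP, 50 μM citrate. Before substrate addition, 1 nM enzyme sat 30 min with compound (top 10 μM, two-fold dilutions; 1% DMSO) in pH 8.0 Hepes/MgCl2/NaCl/DTT buffer.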

Assay [2] concerns the target T1, ACLY. Briefly: InCell Pulse assay (permeate HEK293 cells, bind to and stabilize ACLY). The format is cell-based. As to conditions: HEK293 cells transfected with pICP-ACLY(FL)-ePL; 1 hour at 37° C., 55° C. heat pulse 10 minutes; read-out: InCell Pulse IC50 GMean. The method in brief: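 HEK293 cells transiently expressing full-length ACLY-ePL were exposed in OptiMEM to 11-point, 3-fold compound dilutions for 1 h at 37 °C, heat-pulsed 10 min at 55 °C, then lysed for enzyme-fragment complementation luminescence. Four-parameter fit, normalised to 0.5% DMSO and 1 μM NDI-094311.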

Where only a bound is given, the exact number is not on record here.

T1 sequence (P53396 whole entry): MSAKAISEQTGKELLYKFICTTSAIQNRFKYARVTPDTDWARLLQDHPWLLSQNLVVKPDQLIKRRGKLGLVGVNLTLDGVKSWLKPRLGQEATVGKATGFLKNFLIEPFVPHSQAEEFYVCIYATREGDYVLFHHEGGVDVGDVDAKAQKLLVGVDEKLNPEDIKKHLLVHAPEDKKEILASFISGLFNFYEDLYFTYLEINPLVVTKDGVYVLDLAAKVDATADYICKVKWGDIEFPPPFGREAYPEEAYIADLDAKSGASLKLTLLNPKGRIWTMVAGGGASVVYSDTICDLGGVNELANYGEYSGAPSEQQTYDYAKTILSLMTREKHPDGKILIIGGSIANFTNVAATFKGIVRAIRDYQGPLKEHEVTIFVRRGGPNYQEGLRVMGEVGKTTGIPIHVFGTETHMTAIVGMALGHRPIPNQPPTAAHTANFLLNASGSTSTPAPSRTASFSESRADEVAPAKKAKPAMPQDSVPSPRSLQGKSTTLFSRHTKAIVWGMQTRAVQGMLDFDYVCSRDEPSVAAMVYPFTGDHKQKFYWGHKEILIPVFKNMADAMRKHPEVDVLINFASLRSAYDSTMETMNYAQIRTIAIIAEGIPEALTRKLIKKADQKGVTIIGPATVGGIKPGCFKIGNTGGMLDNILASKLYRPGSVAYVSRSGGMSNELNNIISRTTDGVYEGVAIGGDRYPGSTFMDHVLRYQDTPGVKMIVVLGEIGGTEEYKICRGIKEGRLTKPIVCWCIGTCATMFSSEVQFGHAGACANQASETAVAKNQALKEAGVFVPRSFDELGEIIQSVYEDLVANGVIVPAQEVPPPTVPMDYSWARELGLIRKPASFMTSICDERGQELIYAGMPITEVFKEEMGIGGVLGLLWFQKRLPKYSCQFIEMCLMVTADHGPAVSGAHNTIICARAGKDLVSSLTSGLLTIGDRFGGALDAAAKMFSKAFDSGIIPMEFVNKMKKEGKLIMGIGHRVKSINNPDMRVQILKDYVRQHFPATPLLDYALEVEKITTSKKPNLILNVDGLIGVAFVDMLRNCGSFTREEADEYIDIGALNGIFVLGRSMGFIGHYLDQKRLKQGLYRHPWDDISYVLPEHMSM

Regarding `O=C1OCc2ccc(F)cc2-c2cc(F)c(F)c(c2)NS(=O)(=O)c2cc1cc(Cl)c2O` [Compound 83, 13-chloro-4,19,20-trifluoro-14-hydroxy-16,16-dioxo-9-oxa-16λ6-thia-17-azatetracyclo[16.3.1.111,15.02,7]tricosa-1(21),2,4,6,11,13,15(23),18(22),19-nonaen-10-one], the values for the IC50 in assay [1] and in assay [2] were under 20 nM and under 300 nM, respectively.
Consider `CC1CCOC(=O)c2cc(Cl)c(O)c(c2)S(=O)(=O)Nc2cc(c(F)cc2F)-c2ccccc21` (single isomer, unassigned) [Compound 44, 15-chloro-21,23-difluoro-16-hydroxy-8-methyl-18,18-dioxo-11-oxa-18λ6-thia-19-azatetracyclo[18.3.1.113,17.02,7]pentacosa-1(23),2(7),3,5,13,15,17(25),20(24),21-nonaen-12-one], for which the half-inhibitory concentration (IC50) (usually the concentration at which inhibition is half-maximal) was 100 to 10000 nM in assay [1] and 1000 to 50000 nM in assay [2].
Consider `O=S1(=O)Nc2cc(c(F)cc2F)-c2ccccc2OCCOCc2cc(Cl)c(O)c1c2` [Compound 67, 15-chloro-21,23-difluoro-18,18-dioxo-8,11-dioxa-18λ6-thia-19-azatetracyclo[18.3.1.113,17.02,7]pentacosa-1(23),2(7),3,5,13,15,17(25),20(24),21-nonaen-16-ol], for which the values for the IC50 in assay [1] and in assay [2] were under 20 nM and 300 to 1000 nM, respectively.
Taken in the same sequence, the figures for `O=C1Cc2cc(Cl)c(O)c(c2)S(=O)(=O)Nc2cc(c(F)cc2F)-c2ccccc2CO1` [Compound 68, 14-chloro-20,22-difluoro-15-hydroxy-17,17-dioxo-9-oxa-17λ6-thia-18-azatetracyclo[17.3.1.112,16.02,7]tetracosa-1(22),2(7),3,5,12(24),13,15,19(23),20-nonaen-10-one] were under 20 nM and under 300 nM.
For `O=C1OCCOc2ccccc2-c2ccc(C(F)(F)F)c(c2)NS(=O)(=O)c2cc1cc(Cl)c2O` [Compound 58, 15-chloro-16-hydroxy-18,18-dioxo-21-(trifluoromethyl)-8,11-dioxa-18λ6-thia-19-azatetracyclo[18.3.1.113,17.02,7]pentacosa-1(24),2(7),3,5,13(25),14,16,20,22-nonaen-12-one] the same measures were 20 to 100 nM and under 300 nM.
Taken in the same sequence, the figures for `O=C1OCCOc2ccc(F)cc2-c2ccc(F)c(c2)NS(=O)(=O)c2cc1c[nH]c2=O` [Compound 37, 4,21-difluoro-18,18-dioxo-8,11-dioxa-18λ6-thia-15,19-diazatetracyclo[18.3.1.113,17.02,7]pentacosa-1(23),2(7),3,5,13,17(25),20(24),21-octaene-12,16-dione] were 100 to 10000 nM and at least 50000 nM.
Turning to `O=C1OCCc2ccccc2-c2cc(F)c(F)c(c2)NS(=O)(=O)c2cc1cc(Cl)c2O` [Compound 80, 14-chloro-20,21-difluoro-15-hydroxy-17,17-dioxo-10-oxa-17λ6-thia-18-azatetracyclo[17.3.1.112,16.02,7]tetracosa-1(23),2,4,6,12,14,16(24),19,21-nonaen-11-one], the IC50 in assay [1] was under 20 nM; in assay [2], under 300 nM.
`O=C1NCCOc2ccccc2-c2cc(c(F)cc2F)NCc2cc1ccc2O` [Compound 13, 21,23-difluoro-16-hydroxy-8-oxa-11,19-diazatetracyclo[18.3.1.1^13,17.0^2,7]pentacosa-1(23),2,4,6,13,15,17(25),20(24),21-nonaen-12-one]: the IC50 in assay [1] is at least 10000 nM; in assay [2], at least 50000 nM.
Taken in the same sequence, the figures for `Nc1cc2cc(n1)S(=O)(=O)Nc1cc(c(F)cc1F)-c1ccccc1OCCOC2=O` [Compound 63, 15-amino-21,23-difluoro-18,18-dioxo-8,11-dioxa-18λ6-thia-16,19-diazatetracyclo[18.3.1.113,17.02,7]pentacosa-1(23),2(7),3,5,13,15,17(25),20(24),21-nonaen-12-one] were at least 10000 nM and at least 50000 nM.
Taken in the same sequence, the figures for `O=C1OCCc2ccccc2-c2cc(c(F)cc2F)NS(=O)(=O)c2cc1cc(Cl)c2O` [Compound 21, 14-chloro-20,22-difluoro-15-hydroxy-10-oxa-17lambda6-thia-18-azatetracyclo[17.3.1.1^12,16.0^2,7]tetracosa-1(23),2,4,6,12,14,16(24),19,21-nonaene-11,17,17-trione] were under 20 nM and under 300 nM.
For the compound `Cc1cc2cc(c1O)S(=O)(=O)Nc1cc(c(F)cc1F)-c1ccccc1CCOC2=O` [Compound 75, 20,22-difluoro-15-hydroxy-14-methyl-17,17-dioxo-10-oxa-17λ6-thia-18-azatetracyclo[17.3.1.112,16.02,7]tetracosa-1(23),2,4,6,12,14,16(24),19,21-nonaen-11-one], the half-inhibitory concentration (IC50) in assay [1] lay within 100 to 10000 nM; in assay [2] it was 300 to 1000 nM.
For `O=C1OCc2ccccc2-c2cc(F)c(F)c(c2)NS(=O)(=O)c2cc1cc(Cl)c2O` [Compound 82, 13-chloro-19,20-difluoro-14-hydroxy-16,16-dioxo-9-oxa-16λ6-thia-17-azatetracyclo[16.3.1.111,15.02,7]tricosa-1(21),2,4,6,11(23),12,14,18(22),19-nonaen-10-one] the same measures were under 20 nM and under 300 nM.
On to `O=S1(=O)Nc2cc(ccc2F)-c2ccccc2CCCOCc2cc(Cl)c(O)c1c2` [Compound 92, 15-chloro-21-fluoro-18,18-dioxo-11-oxa-18λ6-thia-19-azatetracyclo[18.3.1.113,17.02,7]pentacosa-1(24),2,4,6,13,15,17(25),20,22-nonaen-16-ol], for which the values for the IC50 in assay [1] and in assay [2] were 100 to 10000 nM and 1000 to 50000 nM, respectively.
For `O=C1OCCOc2ccc(Br)cc2-c2cc(c(F)cc2F)NS(=O)(=O)c2cc1cc(Cl)c2O` [Compound 24, 4-bromo-15-chloro-21,23-difluoro-16-hydroxy-8,11-dioxa-18lambda6-thia-19-azatetracyclo[18.3.1.1^13,17.0^2,7]pentacosa-1(24),2,4,6,13,15,17(25),20,22-nonaene-12,18,18-trione] the same measures were 20 to 100 nM and under 300 nM.
Taken in the same sequence, the figures for `O=C1OCCOc2cc3cn[nH]c3cc2-c2cc(c(F)cc2F)NS(=O)(=O)c2cc1cc(Cl)c2O` [Compound 53, 18-chloro-24,26-difluoro-19-hydroxy-21,21-dioxo-11,14-dioxa-21λ6-thia-5,6,22-triazapentacyclo[21.3.1.116,20.02,10.04,8]octacosa-1(27),2(10),3,6,8,16(28),17,19,23,25-decaen-15-one] were 100 to 10000 nM and at least 50000 nM.
For `O=C1OCCOc2ccccc2-c2ccc(F)c(c2)NS(=O)(=O)c2cc1cc(Cl)c2O` [Compound 23, 15-chloro-21-fluoro-16-hydroxy-8,11-dioxa-18lambda6-thia-19-azatetracyclo[18.3.1.1^13,17.0^2,7]pentacosa-1(24),2,4,6,13,15,17(25),20,22-nonaene-12,18,18-trione] the same measures were under 20 nM and under 300 nM.
Turning to `CC1CCOC(=O)c2cc(Cl)c(O)c(c2)S(=O)(=O)Nc2cc(c(F)cc2F)-c2ccccc21` (centres unmarked) [Compound 43, 15-chloro-21,23-difluoro-16-hydroxy-8-methyl-18,18-dioxo-11-oxa-18λ6-thia-19-azatetracyclo[18.3.1.113,17.02,7]pentacosa-1(23),2(7),3,5,13,15,17(25),20(24),21-nonaen-12-one], the values for the 50% inhibitory concentration (IC50) in assay [1] and in assay [2] were 20 to 100 nM and 300 to 1000 nM, respectively.
Taken in the same sequence, the figures for `O=C1OCCOc2ncccc2-c2cc(c(F)cc2F)NS(=O)(=O)c2cc1cc(Cl)c2O` [Compound 32, 15-chloro-21,23-difluoro-16-hydroxy-8,11-dioxa-18lambda6-thia-6,19-diazatetracyclo[18.3.1.1^13,17.0^2,7]pentacosa-1(24),2,4,6,13,15,17(25),20,22-nonaene-12,18,18-trione] were under 20 nM and under 300 nM.
Taken in the same sequence, the figures for `O=C1OCCOc2cc(F)ccc2-c2ccc(F)c(c2)NS(=O)(=O)c2cc1cc(Cl)c2O` [Compound 48, 15-chloro-5,21-difluoro-16-hydroxy-18,18-dioxo-8,11-dioxa-18λ6-thia-19-azatetracyclo[18.3.1.113,17.02,7]pentacosa-1(23),2(7),3,5,13(25),14,16,20(24),21-nonaen-12-one] were under 20 nM and under 300 nM.
Turning to `Cc1cc2cc(n1)S(=O)(=O)Nc1cc(c(F)cc1F)-c1ccccc1OCCOC2=O` [Compound 62, 21,23-difluoro-15-methyl-18,18-dioxo-8,11-dioxa-18λ6-thia-16,19-diazatetracyclo[18.3.1.113,17.02,7]pentacosa-1(24),2,4,6,13,15,17(25),20,22-nonaen-12-one], the IC50 in assay [1] was at least 10000 nM; in assay [2], at least 50000 nM.
For `O=C1OCCOc2ccccc2-c2ccc(OC(F)F)c(c2)NS(=O)(=O)c2cc1cc(Cl)c2O` [Compound 55, 15-chloro-21-(difluoromethoxy)-16-hydroxy-18,18-dioxo-8,11-dioxa-18λ6-thia-19-azatetracyclo[18.3.1.113,17.02,7]pentacosa-1(23),2(7),3,5,13(25),14,16,20(24),21-nonaen-12-one] the same measures were under 20 nM and 300 to 1000 nM.
Regarding `O=C1c2cc(Cl)c(O)c(c2)S(=O)(=O)Nc2cc(c(F)cc2F)-c2ccccc2OCC2CN1C2` [Compound 33, 16-chloro-22,24-difluoro-17-hydroxy-19,19-dioxo-8-oxa-19λ6-thia-12,20-diazapentacyclo[19.3.1.110,12.114,18.02,7]heptacosa-1(25),2,4,6,14,16,18(26),21,23-nonaen-13-one], the IC50 in assay [1] fell in the range of 20 to 100 nM; in assay [2], 300 to 1000 nM.
